US8778340B2, “Anti-angiogenesis therapy for the treatment of ovarian cancer” (priority 2010, dated 2014)

Tests used:
[1] = tested on: newly diagnosed high risk FIGO stage I-IIa and stage IIb-IV epithelial ovarian, fallopian tube or primary peritoneal cancer; experiment: ICON7 phase III randomized two-arm trial of adding bevacizumab to carboplatin and paclitaxel (Example 2); type: in vivo, human; conditions: for PFS hazard ratio (HR) (95% CI): CPB7.5+ versus CP, Log-Rank Test p 0.0010
Text: Results are presented from a phase III randomized study (ICON7) to evaluate the safety and efficacy of adding bevacizumab to standard chemotherapy with carboplatin and paclitaxel. The primary endpoint was to determine whether the addition of bevacizumab to standard chemotherapy improves progression free survival (PFS) when compared to standard chemotherapy alone in women with newly diagnosed, histologically confirmed, high risk International Federation of Gynaecology and Obstetrics (FIGO) stage I and IIa (Grade 3 or clear cell carcinoma only) and FIGO stage IIb-IV (all grades and all histological types) epithelial ovarian, fallopian tube or primary peritoneal cancer, who have undergone initial surgery (either debulking cytoreductive surgery or a biopsy if the patient has FIGO stage IV disease) and who would not be considered for cytoreductive surgery prior to disease progression. Secondary endpoints included overall survival (OS), response rate, duration of response, biological progression free interval (defined by increasing CA 125 or PFIBIO), safety and quality of life. ICON7 was a 2-arm randomized clinical trial comparing standard therapy (carboplatin and paclitaxel) with one investigational arm incorporating bevacizumab in combination with paclitaxel and carboplatin (see FIG. 8). A total of 1528 eligible women participated in the trial.
ICON7 included patients with newly diagnosed, histologically confirmed, high risk FIGO stage I and IIa (Grade 3 or clear cell carcinoma only) and FIGO stage IIb-IV (all grades and all histological types) epithelial ovarian, fallopian tube or primary peritoneal cancer, who have undergone initial surgery (either debulking cytoreductive surgery or a biopsy if the patient has FIGO stage IV disease) and who will not be considered for cytoreductive surgery prior to disease progression. Patients with measurable and non-measurable disease are eligible. Patients were considered eligible for enrollment in this trial if they fulfilled all the inclusion criteria and none of the exclusion criteria as described below:
Tumor assessments, either by CT or MRI scan, with measurements using the RECIST criteria, were performed after three and six cycles of chemotherapy, and at around nine months and 12 months in the first year, or after cycle 12 and cycle 18 of treatment for patients on the research arm. In the second and third year of the trial tumour assessments were repeated every six months and thereafter as clinically indicated. These scans were performed irrespective of whether the patient has been optimally or sub-optimally debulked, and irrespective of whether there is measurable disease, or not, on the baseline scan.
Patients were clinically assessed and CA 125 measured at the start of every chemotherapy cycle and then six weekly during the first year of the trial. In the second and third year of the trial patients were assessed and CA 125 measured every three months. In the fourth and fifth year patients were clinically assessed and CA 125 measured every six months. Thereafter assessments were yearly. Progression based on CA 125 criteria alone were verified with a CT scan. If this was negative then it was repeated at the time of suspected clinical progression.
Regular physical examination and routine blood tests were performed during treatment to monitor patient safety. Quality of life (QoL) were assessed using the EORTC QLQ C-30+OV-28 and EQ-5D questionnaires at the start of every chemotherapy cycle, every six weeks until the end of the first year and then every three months until treatment for progression commenced, or to the end of year two. An additional QoL form was completed by all patients still alive three years after randomisation. Adverse events and medical resource use were documented during the study treatment and follow-up period.

[2] = tested on: platinum-sensitive recurrent epithelial ovarian, primary peritoneal, or fallopian tube carcinoma; experiment: OCEANS phase III placebo-controlled trial of carboplatin and gemcitabine plus bevacizumab (Example 3); type: in vivo, human
Description: This example describes a placebo-controlled, randomized, multicenter Phase III study evaluating the efficacy and safety of bevacizumab (15 mg/kg, Day 1, every 21 days), administered in combination with carboplatin (area under the curve [AUC] 4, Day 1, every 21 days) with gemcitabine (1000 mg/m2, Day 1 and Day 8, every 21 days) in women with platinum sensitive recurrent epithelial ovarian, primary peritoneal, or fallopian tube carcinoma. About 480 patients were enrolled over a period of approximately 2.5 years. Patients were randomized in either carboplatin and gemcitabine with placebo versus carboplatin and gemcitabine with bevacizumab. […]
This phase III study of bevacizumab plus chemotherapy in women with ovarian cancer met its primary endpoint. […] PFS is defined as the time from randomization to disease progression as determined by the investigator or death due to any cause, whichever occurs first. The primary endpoint of PFS was assessed by the study investigators. Measurable disease was investigator assessed using modified RECIST (Therasse et al. 2000), e.g., every 9 weeks throughout the course of the study. […]

[3] = tested on: newly diagnosed, previously untreated, stage III or IV epithelial ovarian, primary peritoneal or fallopian tube cancer; experiment: Phase III trial of carboplatin and paclitaxel plus placebo versus plus concurrent bevacizumab versus plus concurrent and extended bevacizumab (Example 1, GOG 0218); type: in vivo, human; conditions: preliminary assessment of safety
Description: Primary Objectives include to determine if the addition of 5 concurrent cycles of bevacizumab to 6 cycles of standard therapy (carboplatin and paclitaxel) [Arm II] increases the duration of progression-free survival (PFS) when compared to 6 cycles of standard therapy alone [Arm I] in women with newly diagnosed stage III (with any gross residual disease) and stage IV, epithelial ovarian, peritoneal primary or fallopian tube cancer; and, to determine if the addition of 5 concurrent cycles of bevacizumab plus extended bevacizumab for 16 cycles beyond the 6 cycles of standard therapy (carboplatin and paclitaxel) [Arm III] increases progression-free survival when compared to 6 cycles of standard therapy [Arm I] in women with newly diagnosed stage III (with any gross residual disease) and stage IV, epithelial ovarian, peritoneal primary or fallopian tube cancer.
In this study two experimental arms were selected to compare with standard cytotoxic chemotherapy with paclitaxel and carboplatin: one incorporating 5 cycles of bevacizumab (concurrent bevacizumab) and the other with bevacizumab for an additional 16 cycles after completion of chemotherapy with paclitaxel and carboplatin (extended bevacizumab). Calvert Formula for Carboplatin (AUC) Dosing: Total dose(mg)=target AUC(in mg/mL/minute)*[GFR(in mL/minute)+25]. […]

[4] = tested on: persistent or recurrent epithelial ovarian cancer or primary peritoneal cancer; conditions: 15 mg/kg every 21 days, cited from earlier work
[5] = tested on: platinum resistant ovarian cancer or primary peritoneal serous cancer; conditions: same dose and schedule as GOG 170-D; 44 patients; cited from earlier work

## CPB7.5+: ICON7 chemotherapy plus bevacizumab arm (Arm B), bevacizumab continued as maintenance for a total duration of 12 months
[1]
  PFS hazard ratio (HR) (95% CI): 0.79 (0.68; 0.91)
[1]; listed as paclitaxel, carboplatin and anti-VEGF antibody
  PFS hazard ratio (HR) (95% CI): 0.79
[1]; number of patients (percent)
  All Deaths: 107 (14.3%)
  All Related Deaths: 5 (0.7%)
  Deaths not due to Progression: 19 (2.5%)
  Pts w. Grade 3/4/5 AE: 479 (64.2%)
  Pts w. Serious AE: 279 (37.4%)
  Pts who Disc. Any Treatment: 293 (39.3%)
  Pts who Disc. Any Treatment due to AE: 162 (21.7%)
[1]; primary analysis of PFS
  PFS median: 18.3 months
[1]; versus paclitaxel and carboplatin alone
  difference in median PFS: 2.3 months

## bevacizumab plus chemotherapy: OCEANS: Avastin 15 mg/kg with carboplatin and gemcitabine, followed by Avastin alone until disease progression
[2]; investigator assessed, modified RECIST, followed by bevacizumab alone until disease progression
  progression-free survival compared to chemotherapy alone: increased

## bevacizumab: recombinant humanized anti-VEGF monoclonal antibody; human IgG1 framework with CDRs from murine antibody A.4.6.1
[2]; in vivo
  safety findings / adverse events: No new safety findings were observed
[3]
  tolerability of the treatment regimen / adverse events: generally well tolerated
[4]; NCI RECIST
  response rate: 21%
[4]
  median PFS: 4.7 months
  progression-free for at least 6 months: 40%
[5]
  progression-free for at least 6 months: 27%
  responses: 16%
[1]; in vivo
  preliminary assessment of adverse events: consistent with previous studies
